Measured values published in publication PMC5736695, “Lectin activity of the pneumococcal pilin proteins” (Scientific Reports, 2017).
Read-outs that look alike come from different tables or passages of the source.

Key:
Format in all cases: binding
RrgA TIGR4 (RrgA T4) = biological target: T1, RrgA TIGR4 (RrgA T4) (Streptococcus pneumoniae, UniProt A0A0H2UNT6); test: SPR (Biacore T100)
T1 construct: gene SP_0462
Text: SPR (Biacore T100) on RrgA TIGR4 (RrgA T4)

RrgA SPEC6B = RrgA SPEC6B (Streptococcus pneumoniae, UniProt A7KT31); test: SPR (Biacore T100); conditions: read-out: RrgA SPEC6B; free oligosaccharide; protein immobilised on CM5 chip; glycans 160 nM to 100 µM
Text: SPR (Biacore T100) on RrgA SPEC6B

RrgC T4 = biological target: T2, RrgC T4 (Streptococcus pneumoniae, UniProt A0A0H2UNM0); test: glycan array, fluorescence; conditions: glycan printed on slide via spacer; PBS, 1 mM MgCl2, 1 mM CaCl2; protein pre-complexed with anti-His and labelled secondary antibodies
T2 construct: gene SP_0464
Text: glycan array, fluorescence on RrgC T4

RrgB T4 = biological target: T3, RrgB T4 (Streptococcus pneumoniae, UniProt A0A0H2UNM7); test: glycan array, fluorescence; conditions: glycan printed on slide via spacer; PBS, 1 mM MgCl2, 1 mM CaCl2; protein pre-complexed with anti-His and labelled secondary antibodies
T3 construct: gene SP_0463
Text: glycan array, fluorescence on RrgB T4

[1] = read-out: RrgA TIGR4, free oligosaccharide, protein immobilised on CM5 chip, glycans 160 nM to 100 µM

RrgA SPEC6B, sequence (A7KT31 entry or part of it): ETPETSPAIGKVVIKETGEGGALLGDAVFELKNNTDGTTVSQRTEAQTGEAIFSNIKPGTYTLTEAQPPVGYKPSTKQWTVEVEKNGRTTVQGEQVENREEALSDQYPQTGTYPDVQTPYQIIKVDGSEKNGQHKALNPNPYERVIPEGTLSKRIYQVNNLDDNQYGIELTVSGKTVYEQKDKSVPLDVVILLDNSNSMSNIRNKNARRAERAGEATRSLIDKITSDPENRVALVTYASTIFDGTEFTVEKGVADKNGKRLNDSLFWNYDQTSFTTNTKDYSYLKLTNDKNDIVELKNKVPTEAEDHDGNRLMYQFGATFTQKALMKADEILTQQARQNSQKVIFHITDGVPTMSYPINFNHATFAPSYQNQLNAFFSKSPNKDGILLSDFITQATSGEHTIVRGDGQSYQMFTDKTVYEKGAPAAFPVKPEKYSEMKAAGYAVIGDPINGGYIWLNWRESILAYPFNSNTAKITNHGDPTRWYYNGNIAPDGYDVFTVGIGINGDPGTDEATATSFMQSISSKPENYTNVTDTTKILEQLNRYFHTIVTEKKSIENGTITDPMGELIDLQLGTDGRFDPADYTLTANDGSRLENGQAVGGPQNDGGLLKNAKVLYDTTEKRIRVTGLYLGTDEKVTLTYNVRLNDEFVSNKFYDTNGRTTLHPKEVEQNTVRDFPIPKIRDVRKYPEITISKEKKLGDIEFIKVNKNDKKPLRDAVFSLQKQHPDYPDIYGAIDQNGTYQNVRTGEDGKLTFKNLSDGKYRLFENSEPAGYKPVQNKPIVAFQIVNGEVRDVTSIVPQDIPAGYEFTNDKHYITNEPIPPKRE
T2 sequence (A0A0H2UNM0 entry or part of it): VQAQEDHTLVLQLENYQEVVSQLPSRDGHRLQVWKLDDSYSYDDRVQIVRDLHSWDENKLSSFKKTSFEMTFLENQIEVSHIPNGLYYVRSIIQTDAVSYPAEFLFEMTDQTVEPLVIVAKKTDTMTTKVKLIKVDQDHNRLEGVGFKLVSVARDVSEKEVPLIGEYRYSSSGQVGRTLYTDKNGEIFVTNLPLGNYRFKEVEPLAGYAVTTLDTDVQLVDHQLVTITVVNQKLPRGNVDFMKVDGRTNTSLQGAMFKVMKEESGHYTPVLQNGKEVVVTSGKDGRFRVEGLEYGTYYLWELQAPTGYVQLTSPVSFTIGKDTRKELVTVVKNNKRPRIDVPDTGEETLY
T1 sequence (A0A0H2UNT6 entry or part of it): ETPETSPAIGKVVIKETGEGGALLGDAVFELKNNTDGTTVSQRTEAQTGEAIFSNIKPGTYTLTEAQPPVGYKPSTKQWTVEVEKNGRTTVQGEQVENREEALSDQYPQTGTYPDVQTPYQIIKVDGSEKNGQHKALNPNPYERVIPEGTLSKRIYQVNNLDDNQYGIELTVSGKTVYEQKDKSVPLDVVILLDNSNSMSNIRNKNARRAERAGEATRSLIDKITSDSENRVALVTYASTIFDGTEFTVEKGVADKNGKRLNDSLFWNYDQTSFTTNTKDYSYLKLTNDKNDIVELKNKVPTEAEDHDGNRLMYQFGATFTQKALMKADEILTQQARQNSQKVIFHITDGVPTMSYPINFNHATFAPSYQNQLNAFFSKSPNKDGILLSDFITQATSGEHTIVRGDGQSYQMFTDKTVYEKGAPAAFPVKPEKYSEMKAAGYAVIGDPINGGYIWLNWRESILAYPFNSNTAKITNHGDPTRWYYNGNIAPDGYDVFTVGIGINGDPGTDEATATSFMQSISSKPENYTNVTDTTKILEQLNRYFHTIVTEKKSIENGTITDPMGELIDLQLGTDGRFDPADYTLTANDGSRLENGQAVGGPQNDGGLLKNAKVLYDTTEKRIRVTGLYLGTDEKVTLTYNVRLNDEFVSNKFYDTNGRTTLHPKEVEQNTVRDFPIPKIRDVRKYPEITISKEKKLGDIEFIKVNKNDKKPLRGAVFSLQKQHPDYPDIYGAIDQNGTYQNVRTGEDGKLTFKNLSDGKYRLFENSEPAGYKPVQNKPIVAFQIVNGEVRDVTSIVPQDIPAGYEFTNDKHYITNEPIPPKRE
T3 sequence (A0A0H2UNM7 entry or part of it): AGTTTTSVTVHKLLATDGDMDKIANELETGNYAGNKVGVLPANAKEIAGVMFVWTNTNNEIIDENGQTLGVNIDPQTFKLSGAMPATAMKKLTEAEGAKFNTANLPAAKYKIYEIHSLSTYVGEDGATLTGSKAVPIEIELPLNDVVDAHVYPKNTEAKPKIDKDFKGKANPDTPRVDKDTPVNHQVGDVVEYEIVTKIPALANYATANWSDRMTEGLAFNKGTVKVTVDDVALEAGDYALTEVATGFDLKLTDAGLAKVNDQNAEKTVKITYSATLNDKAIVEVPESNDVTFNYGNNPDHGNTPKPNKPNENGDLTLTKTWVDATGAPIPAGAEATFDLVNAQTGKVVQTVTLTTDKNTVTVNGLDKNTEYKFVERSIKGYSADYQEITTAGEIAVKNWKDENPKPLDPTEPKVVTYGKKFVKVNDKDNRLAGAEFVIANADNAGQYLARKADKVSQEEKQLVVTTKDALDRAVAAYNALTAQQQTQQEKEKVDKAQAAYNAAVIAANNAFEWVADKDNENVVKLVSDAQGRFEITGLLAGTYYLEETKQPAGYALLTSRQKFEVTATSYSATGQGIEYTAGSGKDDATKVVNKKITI

| Compound | Kd (RrgA TIGR4 (RrgA T4); [1]) [nM] | Kd (RrgA SPEC6B) [nM] | other results |
| --- | --- | --- | --- |
| CC(=O)N[C@H]1[C@H](O[C@H]2[C@@H](O)[C@@H](CO)O[C@@H](O[C@H]3[C@H](O)[C@@H](O)C(O)O[C@@H]3CO)[C@@H]2O)O[C@H](CO)[C@@H](O)[C@@H]1O[C@@H]1O[C@H](CO)[C@H](O)[C@H](O)[C@H]1O (stereo partly shown) [1G, Lacto-N-tetraose] | 1030 ± 50 | 869 ± 454 |  |
| CC(=O)N[C@H]1[C@@H](O[C@H]2[C@@H](O)[C@@H](CO)OC(O)[C@@H]2O[C@@H]2O[C@@H](C)[C@@H](O)[C@@H](O)[C@@H]2O)O[C@H](CO)[C@H](O)[C@@H]1O (stereo partly shown) [7K, Blood group A tri] | 916 ± 66.4 | 1400 ± 290 |  |
| CC(=O)N[C@H]1[C@@H](O[C@H]2[C@@H](O)[C@@H](CO)O[C@@H](O[C@H]3[C@@H](O)[C@@H](CO)OC(O)[C@@H]3NC(C)=O)[C@@H]2O[C@@H]2O[C@@H](C)[C@@H](O)[C@@H](O)[C@@H]2O)O[C@H](CO)[C@H](O)[C@@H]1O (stereo partly shown) [Blood group A type3/4] | 871 ± 286 | 644 ± 157 |  |
| CC(=O)N[C@H]1C(O)O[C@H](CO)[C@H](O)[C@@H]1O[C@@H]1O[C@H](CO)[C@H](O)[C@H](O)[C@H]1O[C@@H]1O[C@@H](C)[C@@H](O)[C@@H](O)[C@@H]1O (stereo partly shown) [Blood group H type 3/4] |  | 358 ± 51 | Kd (RrgA TIGR4 (RrgA T4); read-out: RrgA TIGR4, free oligosaccharide, protein immobilised on CM5 chip, glycans 160 nM to 100 µM (value below tested range)): 89.4 ± 16 nM |
| CC(=O)N[C@H]1C(O)O[C@H](CO)[C@@H](O[C@@H]2O[C@H](CO)[C@H](O)[C@H](O)[C@H]2O)[C@@H]1O[C@@H]1O[C@@H](C)[C@@H](O)[C@@H](O)[C@@H]1O (stereo partly shown) [Lewis X] |  | 363 ± 107 | Kd (RrgA TIGR4 (RrgA T4)): 434 ± 118 nM |
| OC[C@H]1O[C@@H](O[C@H]2[C@H](O)[C@@H](O)C(O)O[C@@H]2CO)[C@H](O)[C@@H](O)[C@@H]1O (stereo partly shown) [cellobiose] |  | 583 ± 155 |  |
| CC(=O)N[C@H]1[C@H](O[C@H]2[C@H](O)[C@@H](NC(C)=O)C(O)O[C@@H]2CO)O[C@H](CO)[C@@H](O)[C@@H]1O (stereo partly shown) [chitobiose] | 409 ± 160 | 426 ± 144 |  |
| OC[C@H]1O[C@H](O[C@H]2[C@H](O)[C@@H](O)C(O)O[C@@H]2CO)[C@H](O)[C@@H](O)[C@@H]1O (stereo partly shown) [maltobiose] | 1160 ± 90 | 964 ± 226 |  |
| Fucα1-2Galβ1-3(Fucα1-4)GlcNAcβ1-3Galβ1-4Glcβ-sp4 [compound 496] |  |  | RrgC T4 (RrgC T4): 1192 ± 322 |
| Galα1-3Galβ1-4GlcNAcβ-sp3 [compound 222] |  |  | RrgC T4 (RrgC T4): 3108 ± 641 |
| Galβ1-6Galβ-sp4 [compound 100] |  |  | RrgC T4 (RrgC T4): 3443.5 ± 523 |
| Manα1-3Manβ-sp4 [compound 120] |  |  | RrgB T4 (RrgB T4): 1332 ± 275 |
